# Measured values as given in ChEMBL document CHEMBL4425099, “Use of Osmotic Pumps to Establish the Pharmacokinetic-Pharmacodynamic Relationship and Define Desirable Human Performance Characteristics for Aggrecanase Inhibitors” (J Med Chem, 2016).
# What was measured:
# Rattus norvegicus [1] = test: Reduction in ADAMTS-4/ADAMTS-5 mediated aggrecan cleavage products in Lewis rat model of MIA assessed as aggrecanase-cleaved fragments at 10 mg/kg, po bid administered post 3 days MIA induction measured after 4 hrs of last dosage on day 7 by NITEGE sandwich ELISA; format: functional
# [2] = Cmax in Lewis rat plasma at 10 mg/kg, po; format: ADME, organism-based; parameters: dose 10 mg/kg, route oral
# [3] = Plasma concentration in Lewis rat model of MIA at 100 mg/kg, po bid administered post 3 days MIA induction measured after 4 hrs of last dosage on day 7; format: ADME, organism-based
# [4] = Ratio of plasma concentration in Lewis rat model of MIA at 30 mg/kg, po bid administered post 3 days MIA induction measured after 4 hrs of last dosage on day 7 to IC50 for human ADAMTS5 in presence of Lewis rat plasma; format: ADME, organism-based; conditions: in vivo
# Matrilysin = target: T1, Matrilysin (Homo sapiens, UniProt P09237); test: Inhibition of human MMP7 using Mca-PQGL-(3-[2,4-dinitrophenyl]-L-2,3-diaminopropionyl)-AR-OH as substrate measured after 2 to 4 hrs by fluorescence analysis
# T1 sequence (P09237 whole entry): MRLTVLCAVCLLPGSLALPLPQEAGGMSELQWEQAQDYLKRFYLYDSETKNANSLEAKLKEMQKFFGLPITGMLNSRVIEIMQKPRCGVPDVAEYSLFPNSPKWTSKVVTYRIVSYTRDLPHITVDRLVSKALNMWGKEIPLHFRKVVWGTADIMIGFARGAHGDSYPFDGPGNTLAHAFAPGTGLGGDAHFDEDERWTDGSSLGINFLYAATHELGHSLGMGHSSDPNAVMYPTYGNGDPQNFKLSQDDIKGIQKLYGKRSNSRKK
# Rattus norvegicus [5] = test: Reduction in ADAMTS-4/ADAMTS-5 mediated aggrecan cleavage products in Lewis rat model of MIA assessed as aggrecanase-cleaved fragments at 100 mg/kg, po bid administered post 3 days MIA induction measured after 4 hrs of last dosage on day 7 by NITEGE sandwich ELISA; format: functional
# Interstitial collagenase = target: T2, Interstitial collagenase (Homo sapiens, UniProt P03956); test: Inhibition of human MMP1 using Mca-PQGL-(3-[2,4-dinitrophenyl]-L-2,3-diaminopropionyl)-AR-OH as substrate measured after 2 to 4 hrs by fluorescence analysis
# T2 sequence (P03956 whole entry): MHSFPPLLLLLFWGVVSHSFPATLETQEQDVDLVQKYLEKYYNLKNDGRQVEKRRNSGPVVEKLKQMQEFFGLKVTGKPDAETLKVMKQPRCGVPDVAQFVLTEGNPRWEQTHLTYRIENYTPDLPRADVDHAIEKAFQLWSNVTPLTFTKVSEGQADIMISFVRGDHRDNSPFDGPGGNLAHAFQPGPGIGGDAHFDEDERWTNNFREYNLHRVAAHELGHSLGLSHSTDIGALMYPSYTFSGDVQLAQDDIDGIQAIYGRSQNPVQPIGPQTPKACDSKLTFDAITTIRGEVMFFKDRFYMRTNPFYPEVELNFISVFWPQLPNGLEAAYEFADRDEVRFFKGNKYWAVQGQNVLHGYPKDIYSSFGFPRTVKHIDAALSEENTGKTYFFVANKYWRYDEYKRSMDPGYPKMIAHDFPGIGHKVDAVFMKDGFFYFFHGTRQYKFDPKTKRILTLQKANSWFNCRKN
# [6] = Dissociation constant, acidic pKa of the compound; format: physicochemical
# [7] = Oral bioavailability in cynomolgus monkey at 5 mg/kg; format: ADME, organism-based, Macaca fascicularis; conditions: in vivo
# [8] = Half life in rat at 1 mg/kg, iv or 10 mg/kg, po; format: ADME, organism-based; conditions: in vivo
# [9] = Clearance in cynomolgus monkey at 1 mg/kg, iv or 5 mg/kg, po; format: ADME, organism-based, Macaca fascicularis; conditions: in vivo
# [10] = Dissociation constant, basic pKa of the compound; format: physicochemical
# [11] = Lipophilicity, log P of the compound; format: physicochemical; conditions: octanol/water
# [12] = Clearance in dog at 3 mg/kg, iv or 5 mg/kg, po; format: ADME, organism-based, Canis lupus familiaris; conditions: in vivo
# [13] = Fraction unbound in dog plasma; format: ADME, cell-free, Canis lupus familiaris
# [14] = Plasma concentration in Lewis rat model of MIA at 1.44 mg/mL, sc administered through infusion pump post 3 days MIA induction; format: ADME, organism-based
# [15] = Half life in cynomolgus monkey at 1 mg/kg, iv or 5 mg/kg, po; format: ADME, organism-based, Macaca fascicularis; conditions: in vivo
# [16] = Volume of distribution at steady state in cynomolgus monkey at 1 mg/kg, iv or 5 mg/kg, po; format: ADME, organism-based, Macaca fascicularis; conditions: in vivo, read-out: Vdss
# [17] = Half life in dog at 3 mg/kg, iv or 5 mg/kg, po; format: ADME, organism-based, Canis lupus familiaris; conditions: in vivo
# [18] = Fraction unbound in rat plasma; format: ADME, cell-free
# [19] = Fraction unbound in human liver microsomes; format: ADME, Microsome
# [20] = Fraction unbound in cynomolgus monkey plasma; format: ADME, cell-free, Macaca fascicularis
# [21] = Volume of distribution at steady state in dog at 3 mg/kg, iv or 5 mg/kg, po; format: ADME, organism-based, Canis lupus familiaris; conditions: in vivo, read-out: Vdss
# [22] = Ratio of plasma concentration in Lewis rat model of MIA at 1.44 mg/mL, sc administered through infusion pump post 3 days MIA induction to IC50 for human ADAMTS5 in presence of rat plasma; format: ADME, organism-based; conditions: in vivo, 72 h
# [23] = Clearance in rat at 1 mg/kg, iv or 10 mg/kg, po; format: ADME, organism-based; conditions: in vivo
# [24] = Ratio of plasma concentration in Lewis rat model of MIA at 30 mg/mL, sc administered through infusion pump post 3 days MIA induction to IC50 for human ADAMTS5 in presence of rat plasma; format: ADME, organism-based; conditions: in vivo, 72 h
# [25] = Volume of distribution at steady state in rat at 1 mg/kg, iv or 10 mg/kg, po; format: ADME, organism-based; conditions: in vivo, read-out: Vdss
# [26] = Fraction unbound in human plasma; format: ADME, cell-free
# [27] = Solubility of the compound at pH 2.2; format: physicochemical; conditions: buffer
# [28] = Oral bioavailability in dog at 5 mg/kg; format: ADME, organism-based, Canis lupus familiaris; conditions: in vivo
# [29] = Ratio of plasma concentration in Lewis rat model of MIA at 30 mg/kg, po bid administered post 3 days MIA induction measured after 1 hr of last dosage on day 7 to IC50 for human ADAMTS5 in presence of Lewis rat plasma; format: ADME, organism-based; conditions: in vivo
# [30] = Plasma concentration in Lewis rat model of MIA at 18 mg/mL, […] post 3 days MIA induction; format: ADME, organism-based
# [31] = Ratio of plasma concentration in Lewis rat model of MIA at 60 mg/mL, […] post 3 days MIA induction to IC50 for human ADAMTS5 in presence of rat plasma; format: ADME, organism-based; conditions: in vivo, 72 h
# [32] = Ratio of plasma concentration in Lewis rat model of MIA at 6 mg/mL, […] post 3 days MIA induction to IC50 for human ADAMTS5 in presence of rat plasma; format: ADME, organism-based; conditions: in vivo, 72 h
# Rattus norvegicus [33] = test: Reduction in ADAMTS-4/ADAMTS-5 mediated aggrecan cleavage products in Lewis rat model of MIA assessed as aggrecanase-cleaved fragments at 60 mg/mL administered through infusion pump post 3 days MIA induction measured after 4 hrs of last dosage on day 7 by NITEGE sandwich ELISA; format: functional
# [34] = Solubility of the compound at pH 2; format: physicochemical; conditions: buffer
smiles,measurement,setting,value
Cc1cnc([C@]2(CNC(=O)c3cc4cc(C(F)(F)F)ccc4o3)NC(=O)NC2=O)n1C,inhibition in vivo at 10 mg/kg,Rattus norvegicus [1],17%
same,Cmax,[2],11 µM
same,concentration at 4 h,[3],31 µM
same,Ratio,[4],76
same,IC50,Matrilysin,100 µM
same,inhibition in vivo at 100 mg/kg,Rattus norvegicus [5],62%
same,IC50,Interstitial collagenase,100 µM
Cc1cnc([C@]2(CNC(=O)c3cc4cc(Cl)ccc4o3)NC(=O)NC2=O)n1C,Cmax,[2],18 µM
CCn1ccnc1[C@]1(CNC(=O)c2cc3cc(Cl)ccc3o2)NC(=O)NC1=O,Cmax,[2],23 µM
CCn1ccnc1[C@]1(CNC(=O)c2cc3cc(C(F)(F)F)ccc3o2)NC(=O)NC1=O,inhibition in vivo at 10 mg/kg,Rattus norvegicus [1],19%
same,Cmax,[2],18 µM
same,concentration at 4 h,[3],11 µM
same,Ratio,[4],54
same,IC50,Matrilysin,100 µM
same,inhibition in vivo at 100 mg/kg,Rattus norvegicus [5],49%
same,IC50,Interstitial collagenase,100 µM
Cn1ccnc1[C@]1(CNC(=O)c2cc3cc(C(F)(F)F)ccc3o2)NC(=O)NC1=O,pKa,[6],7.35
same,bioavailability,[7],76%
same,half-life,[8],1.9 h
same,clearance,[9],7.3 mL/min/kg
same,pKa,[10],3.67
same,logP,[11],1.63
same,inhibition in vivo at 10 mg/kg,Rattus norvegicus [1],32%
same,clearance,[12],4.8 mL/min/kg
same,concentration at 4 h,[3],11 µM
same,fraction unbound,[13],0.196
same,concentration at 72 h,[14],0.13 µM
same,half-life,[15],6.5 h
same,Vd,[16],0.59 L/kg
same,half-life,[17],5.7 h
same,fraction unbound,[18],0.143
same,fraction unbound,[19],0.719
same,fraction unbound,[20],0.248
same,Vd,[21],0.52 L/kg
same,Ratio,[4],46
same,IC50,Matrilysin,100 µM
same,Ratio,[22],3.7
same,clearance,[23],4.8 mL/min/kg
same,Ratio,[24],100
same,Vd,[25],0.31 L/kg
same,fraction unbound,[26],0.245
same,solubility,[27],1750 µg/mL
same,bioavailability,[28],93%
same,inhibition in vivo at 100 mg/kg,Rattus norvegicus [5],68%
same,IC50,Interstitial collagenase,100 µM
same,Ratio,[29],2000
O=C1NC(=O)[C@](CNC(=O)c2cc3cc(C(F)(F)F)ccc3o2)(C2CC2)N1,pKa,[6],8.52
same,bioavailability,[7],100%
same,half-life,[8],3.8 h
same,clearance,[9],1 mL/min/kg
same,logP,[11],2.29
same,clearance,[12],1.3 mL/min/kg
same,fraction unbound,[13],0.215
same,concentration at 72 h,[30],2.2 µM
same,half-life,[15],12 h
same,Vd,[16],0.8 L/kg
same,half-life,[17],9.1 h
same,fraction unbound,[18],0.206
same,Ratio,[31],46
same,fraction unbound,[19],0.557
same,Ratio,[32],10
same,fraction unbound,[20],0.229
same,Vd,[21],0.92 L/kg
same,inhibition (INH),Rattus norvegicus [33],59%
same,IC50,Matrilysin,100 µM
same,clearance,[23],13 mL/min/kg
same,solubility,[34],12 µg/mL
same,Vd,[25],3.6 L/kg
same,fraction unbound,[26],0.255
same,bioavailability,[28],74%
same,IC50,Interstitial collagenase,50 µM
Cn1ccnc1[C@]1(CNC(=O)c2cc3cc(Cl)ccc3o2)NC(=O)NC1=O,Cmax,[2],11 µM
same,IC50,Matrilysin,100 µM
same,IC50,Interstitial collagenase,19 µM
